Measured values: ChEMBL document CHEMBL4673295 (Bioorg Med Chem, 2021)

Experiments:
[1] = Binding affinity to Escherichia coli BL21 (DE3) HPPK in presence of ATP and MgCl2 by fluorimetry
[2] = Binding affinity to Escherichia coli HPPK by isothermal titration calorimetry
[3] = Inhibition of Escherichia coli HPPK incubated for 30 mins by thin layer chromatography
[4] = Binding affinity to Escherichia coli BL21 (DE3) HPPK incubated for 10 mins by fluorimetry

Nc1nc2c(c(=O)[nH]1)N=C(CO)CN2 showed a Kd [1] of 0.17 µM.
With CC1(C)Nc2nc(N)[nH]c(=O)c2N=C1C(=O)NCCN1CC[C@@H](S(=O)(=O)C[C@H]2O[C@@H](n3cnc4c(N)ncnc43)[C@H](O)[C@@H]2O)C[C@@H]1C(=O)O the Kd [2] was 0.047 µM.
In the case of CC1(C)Nc2nc(N)[nH]c(=O)c2N=C1C(=O)NCCN1CC[C@@H](SC[C@H]2O[C@@H](n3cnc4c(N)ncnc43)[C@H](O)[C@@H]2O)C[C@@H]1C(=O)O, the Kd [2] is reported as 0.19 µM and the IC50 [3] is reported as 0.38 µM.
With Nc1ncnc2c1ncn2[C@@H]1O[C@H](COP(=O)(O)OP(=O)(O)OP(=O)(O)O)[C@@H](O)[C@H]1O [ADENOSINE TRIPHOSPHATE] the Kd [4] was 2.6 µM.
